From patent US20230255961A1, “Rotomeric Isomers of 4-Alkyl-5-Heteroaryl-3H-1,2-Dithiole-3-Thiones” (ST IP Holding AG, priority 2020, published 2023)
Like-named read-outs stand apart in the source and are kept apart here.

Tests used:
HGEPp cells [1] = assay: ROS production in H2O2-induced oxidatively stressed HGEPp cells; format: cell-based, human; details: HGEPp cells pretreated 24 hrs at 100 μg/mL prior to 0.3 mM H2O2 for 4 h; positive control 139%
Method: That same assay was carried out on the rotomer compositions prepared in Examples 1-11 above to determine their effect on protecting primary human gingival epithelial cells (HGEPp) cells from oxidative damage induced by hydrogen peroxide (H2O2).

ALOX12 = assay: Human oxidative stress RT2 Profiler PCR array in HGEPp cells: ALOX12; format: cell-based; details: HGEPp cells pretreated 24 h at 100 μg/ml; ΔΔCt
Method: (§1) RT-PCR was performed on an iCycler.

SOD1 = assay: Human oxidative stress RT2 Profiler PCR array in HGEPp cells: SOD1; format: cell-based; details: HGEPp cells pretreated 24 h at 100 μg/ml; ΔΔCt
Method: as §1

GPX1 = assay: Human oxidative stress RT2 Profiler PCR array in HGEPp cells: GPX1; format: cell-based; details: HGEPp cells pretreated 24 h at 100 μg/ml; ΔΔCt
Method: as §1

NQO1 = assay: Human oxidative stress RT2 Profiler PCR array in HGEPp cells: NQO1; format: cell-based; details: HGEPp cells pretreated 24 h at 100 μg/ml; ΔΔCt
Method: as §1

GCLC = assay: Human oxidative stress RT2 Profiler PCR array in HGEPp cells: GCLC; format: cell-based; details: HGEPp cells pretreated 24 h at 100 μg/ml; ΔΔCt
Method: as §1

GSTP1 = assay: Human oxidative stress RT2 Profiler PCR array in HGEPp cells: GSTP1; format: cell-based; details: HGEPp cells pretreated 24 h at 100 μg/ml; ΔΔCt
Method: as §1

GCLM = assay: Human oxidative stress RT2 Profiler PCR array in HGEPp cells: GCLM; format: cell-based; details: HGEPp cells pretreated 24 h at 100 μg/ml; ΔΔCt
Method: as §1

GTF2i = assay: Human oxidative stress RT2 Profiler PCR array in HGEPp cells: GTF2i; format: cell-based; details: HGEPp cells pretreated 24 h at 100 μg/ml; ΔΔCt
Method: as §1

PTGS1 = assay: Human oxidative stress RT2 Profiler PCR array in HGEPp cells: PTGS1; format: cell-based; details: HGEPp cells pretreated 24 h at 100 μg/ml; ΔΔCt
Method: as §1

UCP2 = assay: Human oxidative stress RT2 Profiler PCR array in HGEPp cells: UCP2; format: cell-based; details: HGEPp cells pretreated 24 h at 100 μg/ml; ΔΔCt
Method: as §1

rat cortical neurons = assay: Caspase 3/7 activation assay, OGD-induced neurotoxicity in rat cortical neurons; format: cell-based; details: 100 μg/ml, 1 h incubation eighteen hours prior to OGD; FIG. 7
Method: The effect of the rotomer complexes of Examples 1, 2, 3 and 9 on neurotoxicity induced by oxygen glucose deprivation (OGD) was tested in a caspase 3/7 activation assay. The assay was applied to freshly isolated rat cortical neurons cultured in 96-well-plates and exposed to the compounds at 100 μg/ml.
In vitro ischemic injury was induced in rat primary neuronal culture by oxygen-glucose deprivation for 2 hours. Neurons were incubated with the compounds for 1 hour eighteen hours prior to the OGD induction. Dizocilpine (MK801) 10 μM was used as positive neuroprotection control. After treatments, incubated with three optically compatible fluorescent dyes, and subsequently analyzed with BD Pathway 855 (Becton Dickinson). Cell parameters associated with caspase 3/7 activation—indicative of pre-lethal cytotoxic effects—were measured by high content screening at single cell level.
Primary cultures of cortical neurons were isolated from cerebral cortices of Sprague-Dawley rat fetuses at embryonic day 18. Brains were removed and after removing the meninges, the tissues were dissected under a binocular microscope. Neurons were enzymatically dispersed by trypsin 0.2% and DNAse […] digestion for 10 min at 37° C. plated in poly-L-lysine wells and incubated with B27 supplemented neurobasal medium.
Cortical neurons of 18 days old embryonic rats were plated in poly-1-lysine coated 96-well plates (30,000 cells per well). Cells were maintained in neurobasal medium supplemented with B-27 component: for 5 days at 37° C. in a humidified 5% CO2 atmosphere. At day 5, cells were subjected to oxygen glucose deprivation (OGD) for 2 hours at 37° C. The cultures were placed in an […] chamber (Billops-Rothenberg) and incubated in neurobasal medium lacking glucose and B27 factor and aerated with an anaerobic gas mixture (94.7% N2. 5% CO2, 0.3% O2) to remove residual oxygen. Control cultures were kept in the original neurobasal medium but were submitted to the anaerobic conditions. At the end of the OGD conditions, the cells were removed from the anaerobic chamber, the OGD medium was replaced with neurobasal medium containing glucose, and the cells were incubated for an additional 24 h. The test compounds were added to the neurons eighteen hours prior to the OGD induction and maintained for 1 h. Replicate cultures were treated as described above with dizocilpine (MK801) as positive control of neuroprotection. The neuroprotective potential of the four rotomer complexes was determined by a caspase 3/7 activation assay.
(§2) Caspase 3/7 activation was determined using The CellEvent® Caspase-3/7 Green Detection Reagent which is intrinsically a non-fluorescent peptide that inhibits the ability of the dye to bind to DNA. However, after caspase-3/7 activation in apoptotic cells, the peptide is cleaved allowing the dye to bind to DNA producing a bright, fluorogenic response. Cell were stained with 5 μM reagent, washed 3 times and measured at 488 nm/530 nm Ex/Em. This dye permits the direct quantification of apoptotic cells.

[2] = system: mouse neonatal primary cardiomyocyte; details: 100 μg/ml, 4 hours prior to OGD, during 18 h OGD and 24 h recovery; FIG. 9
Method: as §2

MPO = assay: Human oxidative stress RT2 Profiler PCR array in HGEPp cells: MPO; details: HGEPp cells pretreated 24 h at 100 μg/ml; ΔΔCt
Method: (§3) Pooled primary HGEPp cells were propagated in CnT-Prime epithelial culture medium provided by CellnTec on 100 mm petri dishes coated with 30 mg/ml Type I rat tail collagen (BD Biosciences) diluted in Duibecco's phosphate-buffered saline (DPBS). HGEPp cells were grown in 12×60 mm Nunc™ Cell Culture dishes at a 2.5×10^4 cells/cm2 density concentration.
(§4) All dosing solutions contained 0.3% of DMSO which is well below the maximum tolerated DMSO percent of 0.8% for HGEPp cells.
(§5) The RN-easy UCP Micro Kit was used to purify mRNA from the HGEPp cells.
(§6) The assay was reliably used to analyze expression levels of 84 genes related to oxidative stress in HGEPp cells pre-treated with ST-617-APT, ST-617-DPT and the rotomeric complexes at 100 μg/ml for 24 h. The cDNA from above was mixed with the RT2 SYBR Green fluor Mastermix and aliquoted into the wells of the RT2 Profiler PCR Array. RT-PCR was performed on an iCycler. Gene expression was compared using et values and the results were calculated using ΔΔ Ct method with normalization to the average expression levels of the five common genes (ACTB, B2M, GAPDH, HPRT, and RPL13A).

GPX4 = assay: Human oxidative stress RT2 Profiler PCR array in HGEPp cells: GPX4; details: HGEPp cells pretreated 24 h at 100 μg/ml; ΔΔCt
Method: as §3, §4, §5, §6

PRDX2 = assay: Human oxidative stress RT2 Profiler PCR array in HGEPp cells: PRDX2; details: HGEPp cells pretreated 24 h at 100 μg/ml; ΔΔCt
Method: as §3, §4, §5, §6

[3] = system: oxidative stress-related genes in HGEPp cells; assay: Human oxidative stress RT2 Profiler PCR array in HGEPp cells: statements over several genes; details: for SOD1, NQ01, GCLC, GSTP1 and GCLM; 100 μg/ml, 24 h
Method: as §3, §4, §5, §6

HGEPp cells [4] = details: 100 μg/mL pretreatment; taken from PCT/IB2017/001312; cited from earlier work

| SMILES | ROS level relative to Normal (100%, optical density baseline) (HGEPp cells [1]) | ALOX12 up regulation relative fold change (ALOX12) | SOD1 up regulation relative fold change (SOD1) | GPX1 up regulation relative fold change (GPX1) | NQO1 up regulation relative fold change (NQO1) | GCLC up regulation relative fold change (GCLC) | GSTP1 up regulation relative fold change (GSTP1) | GCLM up regulation relative fold change (GCLM) | GTF2i down regulation relative fold change (GTF2i) | PTGS1 down regulation relative fold change (PTGS1) | UCP2 down regulation relative fold change (UCP2) | OGD induced caspase 3/7 activation (rat cortical neurons) | neuroprotection (rat cortical neurons) | cardioprotection [2] | MPO up regulation relative fold change (MPO) | GPX4 up regulation relative fold change (GPX4) | PRDX2 down regulation relative fold change (PRDX2) | up-regulation compared to ST-617-DPI and ST-617-DPI [3] | ROS level relative to Normal (100%, optical density baseline) (HGEPp cells [4]) |
| --- | --- | --- | --- | --- | --- | --- | --- | --- | --- | --- | --- | --- | --- | --- | --- | --- | --- | --- | --- |
| COP(=O)([O-])OC.Cc1c(-c2c[n+](C)ccn2)ssc1=S [Example 9, dimethyl phosphate complex of N-methyl oltipraz] | 112% | 6.43 fold | 5.22 fold | 4.89 fold | 4.24 fold | 4.60 fold | 3.16 fold | 3.15 fold | 0.28 fold | 0.21 fold | 0.15 fold | significantly reduced | high degree of neuroprotection | significant degree of cardioprotection | 3.41 fold | 2.93 fold | 0.27 fold | significantly higher up-regulation | – |
| Cc1c(-c2cnccn2)ssc1=S [ST-617-API, 4-methyl-5-(pyrazin-2-yl)-3H-1,2-dithiole-3-thione, reference compound] | – | – | – | – | – | – | – | – | – | 6.22 fold | – | – | – | – | – | – | – | – | 124% |
